Values of other authors as cited in article PMC12697872, “Rethinking the AI Paradigm for Solubility Prediction of Drug‑Like Compounds with Dual‐Perspective Modeling and Experimental Validation” (Advanced Science, 2025).
Read-outs that look alike come from different tables or passages of the source.

Settings: cited from earlier work; for ex_logS: experimental aqueous solubility as logS; for Experimental solubility (descriptive): discarded ambiguous entries of DrugBank database, ref DrugBank database (version 5.1.12) 24
[1] = sheet "DrugBank" of Supplement 2, ref DrugBank
[2] = sheet "DrugBank", ref DrugBank database

Compound	ex_logS [2]	further results
CC(C)NCC(O)COc1cccc2ccccc12 (stereo not drawn) [Propranolol]	–	ex_logS [1]: -3.624
Cc1ncc(CO)c(C=O)c1O [Pyridoxal]	–	ex_logS [1]: 0.4758
O=C(O)CC(=O)O [Malonic acid]	–	ex_logS [1]: 0.8652
N[C@@H](Cc1ccc(O)c(O)c1)C(=O)O [Levodopa]	–	ex_logS [1]: -2.299
C[C@@H](CO)NC(=O)[C@@H]1C=C2c3cccc4[nH]cc(c34)C[C@H]2N(C)C1 [Ergometrine]	-2.084	–
C=CC(=O)N1CCN(c2nc(=O)n(-c3c(C)ccnc3C(C)C)c3nc(-c4c(O)cccc4F)c(F)cc23)[C@@H](C)C1 [Sotorasib]	-4.272	–
OC[C@H]1O[C@@](CO)(O[C@H]2O[C@H](CO)[C@@H](O)[C@H](O)[C@H]2O)[C@@H](O)[C@@H]1O [Sucrose]	0.7878	–
O=C(/C=C/c1cccc(S(=O)(=O)Nc2ccccc2)c1)NO [Belinostat]	-3.357	–
CSCC[C@H](N)C(=O)O [Methionine]	–	ex_logS [1]: -0.421
CC(C)(C#N)c1cc(Cn2cncn2)cc(C(C)(C)C#N)c1 [Anastrozole]	-2.743	–
C[C@@H]1C[C@H]2[C@@H]3CCC4=CC(=O)C=C[C@]4(C)[C@@]3(F)[C@@H](O)C[C@]2(C)[C@@]1(O)C(=O)CO [Dexamethasone]	–	ex_logS [1]: -3.644
CCc1nc(N)nc(N)c1-c1ccc(Cl)cc1 [Pyrimethamine]	-3.313	–
O=C(O)c1ccc2ccccc2n1 [Quinaldic Acid]	-1.092	–
CCC1(C)CC(=O)NC1=O (stereo not drawn) [Ethosuximide]	-0.5564	–
CNCCCC1c2ccccc2C=Cc2ccccc21 [Protriptyline]	-5.404	–
CCOC(=O)c1ccc(N)cc1 [benzocaine]	–	ex_logS [1]: -2.32
C[C@@H](N)C(=O)O [D-Alanine]	0.2676	–
CCOC(=O)Nc1ccc2c(c1)N(C(=O)CCN1CCOCC1)c1ccccc1S2 [Moricizine]	-5.971	–
C[C@]12C=CC(=O)C=C1CC[C@@H]1[C@@H]2CC[C@]2(C)OC(=O)CC[C@@H]12 [Testolactone]	–	ex_logS [1]: -4.04
Nc1nc(CC(=O)Nc2ccc(CCNC[C@H](O)c3ccccc3)cc2)cs1 [Mirabegron]	-3.684	–
Cc1oncc1C(=O)Nc1ccc(C(F)(F)F)cc1 [Leflunomide]	-4.109	–

Compound	ex_logS [2]	further results
CC(=O)OCC1=C(C(=O)O)N2C(=O)[C@@H](NC(=O)Cc3cccs3)[C@H]2SC1 [Cefalotin]	-3.4	–
C[C@]1(O)CC[C@H]2[C@@H]3CCC4=CC(=O)CC[C@]4(C)[C@@]3(F)[C@@H](O)C[C@@]21C [Fluoxymesterone]	–	ex_logS [1]: -3.698
CN1C(C(=O)Nc2ccccn2)=C(O)c2sccc2S1(=O)=O [Tenoxicam]	-4.379	–
CC(=O)[C@@]1(C)CC[C@H]2[C@@H]3C=C(C)C4=CC(=O)CC[C@]4(C)[C@H]3CC[C@@]21C [Medrogestone]	–	ex_logS [1]: -5.277
N[C@@H](CSCC(=O)O)C(=O)O [Carbocisteine]	-2.0492	–
O=C(O)Cc1ccccc1Nc1c(Cl)cccc1Cl [Diclofenac]	-5.097	–
Nc1ncn([C@H]2C[C@H](O)[C@@H](CO)O2)c(=O)n1 [Decitabine]	-1.317	–
CCOC(=O)c1cncn1[C@H](C)c1ccccc1 [Etomidate]	–	ex_logS [1]: -3.587
Oc1ccc2c(c1)[C@@]13CCCC[C@@]1(O)[C@@H](C2)N(CC1CCC1)CC3 [42408-82-2]	–	Experimental solubility (descriptive): Moderate
C[C@H]1C[C@H]2[C@@H]3CCC4=CC(=O)C=C[C@]4(C)[C@@]3(F)[C@@H](O)C[C@]2(C)[C@@]1(O)C(=O)CO [Betamethasone]	–	ex_logS [1]: -3.771
CNCCCN1c2ccccc2CCc2ccccc21 [Desipramine]	–	ex_logS [1]: -3.658
NS(=O)(=O)c1cc2c(cc1C(F)(F)F)NC(Cc1ccccc1)NS2(=O)=O (stereo not drawn) [Bendroflumethiazide]	-3.591	–
CN(C)CCc1c[nH]c2ccc(C[C@H]3COC(=O)N3)cc12 [Zolmitriptan]	-2.344	–
CCCCC(=O)O [N-Valeric Acid]	-0.6289	–
CC(C)N(CCC(C(N)=O)(c1ccccc1)c1ccccn1)C(C)C (stereo not drawn) [Disopyramide]	–	ex_logS [1]: -3.879
C=CCC1(C(C)CCC)C(=O)N=C(S)NC1=O (stereo not drawn) [Thiamylal]	–	ex_logS [1]: -3.7117
CCN(CC)C(=O)N1CCN(C)CC1 [Diethylcarbamazine]	–	ex_logS [1]: -0.4954
CCn1cc(C(=O)O)c(=O)c2ccc(-c3ccncc3)cc21 [Rosoxacin]	-4.149	–
CCC1(C)OC(=O)N(C)C1=O (stereo not drawn) [Paramethadione]	–	ex_logS [1]: -1.272
CCC(NC(C)C)C(O)c1ccc(O)c(O)c1 (stereo not drawn) [79490-84-9]	–	Experimental solubility (descriptive): Appreciable
Clc1ccc2c(c1)C(c1ccccc1)=NCc1nncn1-2 [Estazolam]	–	ex_logS [1]: -5.293

Compound	ex_logS [2]	further results
O=C(CCCN1CC=C(n2c(=O)[nH]c3ccccc32)CC1)c1ccc(F)cc1 [Droperidol]	-4.955	–
CC/C=C\C/C=C\C/C=C\CCCCCCCC(=O)O [alpha-Linolenic acid]	-6.351	–
COc1cc(Cc2cnc(N)nc2N)cc(OC)c1OC [Trimethoprim]	–	ex_logS [1]: -2.861
O=NN(CCCl)C(=O)NC1CCCCC1 [Lomustine]	-3.323	–
CC(C)NCC(O)c1cc(O)cc(O)c1 (stereo not drawn) [Orciprenaline]	–	ex_logS [1]: -4.338
CCC1(C2=CCCCCC2)C(=O)NC(=O)NC1=O [Heptabarbital]	-3.001	–
CC(=O)Oc1c(C)cc(OCC(O)CNC(C)C)c(C)c1C (stereo not drawn) [Metipranolol]	–	ex_logS [1]: -2.72
N[C@@H](Cc1ccccc1)C(=O)O [Phenylalanine]	-0.7882	–
CC(=O)OCC1=C(C(=O)O)N2C(=O)[C@@H](NC(=O)[C@H](N)c3ccccc3)[C@H]2SC1 [Cephaloglycin]	-3.42	–
C[C@@H]1C[C@H]2[C@@H]3C[C@H](F)C4=CC(=O)C=C[C@]4(C)[C@@]3(F)[C@@H](O)C[C@]2(C)[C@H]1C(=O)CO [Difluocortolone]	-5.289	–
CCC(=O)c1ccc2c(c1)N(CC(C)N(C)C)c1ccccc1S2 (stereo not drawn) [Propiomazine]	-5.875	–
CC(C)/N=c1\cc2n(-c3ccc(Cl)cc3)c3ccccc3nc-2cc1Nc1ccc(Cl)cc1 [Clofazimine]	-6.323	–
CN[C@H](CC(C)C)C(=O)N[C@H]1C(=O)N[C@@H](CC(N)=O)C(=O)N[C@H]2C(=O)N[C@H]3C(=O)N[C@H](C(=O)N[C@H](C(=O)O)c4cc(O)cc(O)c4-c4cc3ccc4O)[C@H](O[C@H]3C[C@](C)(N)[C@@H](O)[C@H](C)O3)c3ccc(c(Cl)c3)Oc3cc2cc(c3O[C@@H]2O[C@H](CO)[C@@H](O)[C@H](O)[C@H]2O[C@H]2C[C@](C)(NCc3ccc(-c4ccc(Cl)cc4)cc3)[C@@H](O)[C@H](C)O2)Oc2ccc(cc2Cl)[C@H]1O [Oritavancin]	-2.2536	–
CC[C@H](C)C(=O)O[C@H]1C[C@@H](C)C=C2C=C[C@H](C)[C@H](CC[C@@H]3C[C@@H](O)CC(=O)O3)[C@H]21 [Lovastatin]	-6.0049	–
NC(=O)O[C@@H](Cn1ncnn1)c1ccccc1Cl [Cenobamate]	-2.197	–
CCCCN1CCCCC1C(=O)Nc1c(C)cccc1C (stereo not drawn) [Bupivacaine]	-3.22	–
C[C@H](Cn1cnc2c(N)ncnc21)OCP(=O)(O)O [Tenofovir]	-1.3311	–
CCCCCc1cc(O)c2c(c1)OC(C)(C)[C@@H]1CCC(C)=C[C@@H]21 [Dronabinol]	-5.05	–
N[C@@H](CS)C(=O)O [Cysteine]	0.3591	–
CCOC(=O)[C@H](CCc1ccccc1)N[C@@H](C)C(=O)N1[C@H](C(=O)O)C[C@@H]2CCC[C@@H]21 [Ramipril]	-5.076	–
CN1C(=O)CC(c2ccccc2)C1=O (stereo not drawn) [Phensuximide]	–	ex_logS [1]: -1.431

Compound	ex_logS [2]	further results
O=C(O)c1ccccc1O [Salicylic acid]	-1.79	–
C=CC1=C(C(=O)O)N2C(=O)[C@@H](NC(=O)/C(=N\O)c3csc(N)n3)[C@H]2SC1 [Cefdinir]	-1.65	–
CCC(=O)O[C@H]1CC[C@H]2[C@@H]3CCC4=CC(=O)CC[C@]4(C)[C@H]3CC[C@]12C [Testosterone propionate]	-5.367	–
C[C@@](Cc1ccc(O)c(O)c1)(NN)C(=O)O [Carbidopa]	-4.775	–
OC[C@H]1O[C@@H](n2cnc3c2NC=NC[C@H]3O)C[C@@H]1O [Pentostatin]	-0.9514	–
CC[C@H]1OC(=O)[C@H](C)[C@@H](O[C@H]2C[C@@](C)(OC)[C@@H](O)[C@H](C)O2)[C@H](C)[C@@H](O[C@@H]2O[C@H](C)C[C@H](N(C)C)[C@H]2O)[C@](C)(OC)C[C@@H](C)C(=O)[C@H](C)[C@@H](O)[C@]1(C)O [Clarithromycin]	-6.355	–
O=C1CN(/N=C/c2ccc([N+](=O)[O-])o2)C(=O)N1 [Nitrofurantoin]	–	ex_logS [1]: -3.4765
C[C@@H]1O[C@@H](O[C@H]2C[C@@H](O)[C@]3(CO)[C@H]4[C@H](O)C[C@]5(C)[C@@H](C6=CC(=O)OC6)CC[C@]5(O)[C@@H]4CC[C@]3(O)C2)[C@H](O)[C@H](O)[C@H]1O [Ouabain]	-1.754	–
CC1=C(/C=C/C(C)=C/C=C/C(C)=C/CO)C(C)(C)CCC1 [Vitamin A]	-5.63	–
COC(=O)OCOc1c2n(ccc1=O)N([C@@H]1c3ccccc3SCc3c1ccc(F)c3F)[C@@H]1COCCN1C2=O [Baloxavir marboxil]	-4.581	–
CCCC(CCC)C(=O)O [Valproic acid]	-2.045	–
CN1CCN(C(c2ccccc2)c2ccccc2)CC1 [Cyclizine]	-2.4255	–
CC1(C)S[C@@H]2[C@H](/N=C/N3CCCCCC3)C(=O)N2[C@H]1C(=O)O [Amdinocillin]	-4.5	–
OC[C@H]1O[C@@H](c2ccc(Cl)c(Cc3ccc(O[C@H]4CCOC4)cc3)c2)[C@H](O)[C@@H](O)[C@@H]1O [Empagliflozin]	-3.207	–
Cc1cnc(NC(=O)C2=C(O)c3ccccc3S(=O)(=O)N2C)s1 [Meloxicam]	-4.467	–
Cyanocobalamin	-2.035	–
O=Cc1ccc(O)cc1 [P-Hydroxybenzaldehyde]	–	ex_logS [1]: -1.16
CC(=O)[C@@]1(O)CC[C@H]2[C@@H]3C[C@H](C)C4=CC(=O)C=C[C@]4(C)[C@@]3(F)[C@@H](O)C[C@@]21C [Fluorometholone]	-4.0986	–
